Results published in ChEMBL document CHEMBL5727727, “(Aza)pyridopyrazolopyrimidinones and indazolopyrimidinones and their use” (2020).

Assay: Plasma-Based Clot Lysis Assay: The clot-lysis test system configures the kinetics of clot formation and degradation in vitro and allows quantifying modulation of the process by selected test compounds.The test compounds were dissolved in 1% acetic acid and further complemented with an equal volume of DMSO. The resulting stock solutions were serially diluted in 0.5% acetic acid/50% DMSO. 1 μL aliquots of these solutions were placed into 384 well microplates (Greiner, black, transparent bottom), followed by 30 μL of diluted human citrated plasma (platelet-poor, final concentration: 5%; supplemented with fibrinogen, final concentration: 3 μM; dilution buffer: 20 mM HEPES, 150 mM NaCl, 0.01% Brij (pH 7)). The reactions were started by addition of 20 μL of CaCl2 (final concentration: 10 mM), and tPA (tissue plasminogen activator, final concentration: 0.2 nM) in dilution buffer, followed by an additional volume of 20 μL dilution buffer for improved mixing. The reactions were incubated at 37° C. Clot formation and degradation was monitored spectrophotometrically by kinetic optical density measurements at 405 nm. IC50 values were determined by comparing the resulting time courses with the time course of a blank control reaction.

IC50 [nM] | Compound
100 | O=c1cc(C2CCNCC2)n2nc3cncc(Br)c3c2[nH]1
35 | Nc1cccc2nn3c(C4CCNCC4)cc(=O)[nH]c3c12
21 | O=c1cc(C2CCNCC2)n2nc3cc(F)cnc3c2[nH]1
